Results taken from US8980544B2, “Boronic and borinic acid compounds as inhibitors of sulfenic acid-containing proteins” (The Penn State Research Foundation, priority 2012, dated 2015).
Where two headings read alike, the source gives them in different places. Marks after values point to notes of the source that are not given here.

Legend:
[1] = literature value; cited from earlier work
[2] = pKa by half-neutralization technique in acetonitrile-water; type: physicochemical
Procedure: The final volume of the solutions is 5 mL. The averaged pKa values from duplicate measurements are reported, and used for analysis.
It should be noted that the pKa values determined this way are not corrected for the change in the autoprotolysis constant of the solution due to mix solvent system.

[3] = Spectrophotometric (UV/vis) titration of boronic acids 2 against the sodium salt of sulfenic acid 1, incl. reversibility with NaOH; conditions: for Kd: read-out: Averaged Kd from spectrophotometric titrations
Procedure: The titration studies were performed using a Cary 100 Bio UV/vis spectrophotometer thermostated at 22° C. […] Each titration study was completed within 10 minutes.
The initial solution contained 0.8 mM of the sodium salt of 1.

[4] = target: T1, iron-based NHase from Rhodococcus erythropolis AJ270 (Rhodococcus erythropolis, UniProt P13448); assay: Enzymatic inhibition of nitrile hydratase (NCTB conversion, 412 nm); type: biochemical; conditions: for Average rate (abs/min): 1 mM NCTB, 23° C.; for Rate relative to NHase: NHase without additive = 100%; for Activity: nmol thiolate product per minute per mg freeze-dried NHase powder
T1 construct: purchased Prozomix Limited
T1 sequence (P13448 1-207): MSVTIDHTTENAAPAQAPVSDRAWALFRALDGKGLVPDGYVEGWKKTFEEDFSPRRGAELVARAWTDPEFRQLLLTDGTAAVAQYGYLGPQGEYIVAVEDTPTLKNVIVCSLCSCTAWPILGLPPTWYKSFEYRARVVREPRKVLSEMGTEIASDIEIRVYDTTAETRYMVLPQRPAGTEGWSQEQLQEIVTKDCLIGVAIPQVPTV
T1 sequence (P13449 1-212 partner): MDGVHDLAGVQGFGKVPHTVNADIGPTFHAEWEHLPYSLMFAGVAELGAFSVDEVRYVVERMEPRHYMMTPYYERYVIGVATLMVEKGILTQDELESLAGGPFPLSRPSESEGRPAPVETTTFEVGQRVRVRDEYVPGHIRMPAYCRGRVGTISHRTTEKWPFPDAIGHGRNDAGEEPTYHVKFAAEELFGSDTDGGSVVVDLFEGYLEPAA
Procedure: Here, the catalytic efficiency of the iron-based NHase from Rhodococcus erythropolis AJ270 (purchased from Prozomix Limited, Station court, Haltwhistle, Northumberland, NE49 9HN, UK; see, proxomix.com) was assayed in the presence of a known sulfenic acid trap (dimedone) and four boronic acid derivatives. The chosen assay [Sari et al., J. Inorg. Biochem. 2007 101:614-622] was the conversion of 2-nitro-5-thiocyanatobenzoic acid (NCTB) into formamide and 5-mercapto-2-nitrobenzoic acid.
The freeze-dried powder from Prozomix was shipped at room temperature and stored at −20° C. upon arrival. The enzyme was reconstituted at 20 mg/mL in 50 mM phosphate buffer (pH 7.0) with 40 mM butyric acid. These were similar conditions to those described in the Prozomix protocol, the main difference being the use of phosphate buffer instead of Tris buffer; by itself, NHase prepared in Tris had the same reactivity as samples prepared in phosphate buffer. The solution was exposed to 400 W white light for 25 minutes on ice to permit for photo-reactivation of the enzyme.
The kinetic studies were conducted by diluting the stock solution of NHase into de-ionized distilled water (ddH2O) to get at about 0.33 mg/mL of freeze-dried NHase powder provided by Prozomix (used without further manipulation) in solution. Appropriate amounts of PBA (phenyl boronic acid; 2 g), BOXY ((2-hydroxylmethyl)-benzeneboronic acid hemiester; 2A), 3BrB (3-bromobenzeneboronic acid; 2d), or dimedone were added to the mixtures so that the final concentrations of the boronic acids/dimedone were 0, 0.5, 1.0, 2.0, or 2.5 mM.
After permitting the newly composed mixtures to sit at room temperature (at about 23° C.) for five minutes, NCTB was added so that the final NCTB concentration equalled 1 mM. The final volume of the mixtures was 1 mL in UV-cells with 1 cm path length. The final concentration of the phosphate buffer was 3.6 mM. The progress of the reaction (release of the thiolate product at 412 nm; extinction coefficient at 412 nm=13600/M/cm) [Sari et al., J. Inorg. […] The rates of the reaction were determined from fitting the first 4 minutes of the absorbance vs. time traces to a standard linear equation. The activity values were calculated as nmol of thiolate product generated per minute per mg of freeze-dried NHase powder. The reaction rates are reported below in Table 4, below, as averages of duplicate kinetic studies.

[5] = 15% (v/v) acetonitrile-water mixture, 15% (v/v) acetonitrile-water, half-neutralization, averaged duplicates, Table 1, read-out: pKa in 15% acetonitrile-water at 22° C.
[6] = 70% (v/v) acetonitrile-water mixture, read-out: Averaged pKa value from half neutralization method in 70% (v/v) acetonitrile-water
[7] = 15% acetonitrile-water mixture, 15% acetonitrile-water, as listed in Table 2, read-out: pKa in 15% acetonitrile-water
[8] = complex 1:2, 70% (v/v) acetonitrile-water, 22° C.
[9] = complex 1:2, 15% (v/v) acetonitrile-water

Structure (SMILES)	pKa [2, 5]	pKa [2, 7]	Average rate (abs/min) ([4]; [B]/[Dimedone] = 0.5 mM)	Rate relative to NHase ([4]; [B]/[Dimedone] = 0.5 mM)	Activity ([4]; [B]/[Dimedone] = 0.5 mM)	Average rate (abs/min) ([4]; [B]/[Dimedone] = 1.0 mM)	Rate relative to NHase ([4]; [B]/[Dimedone] = 1.0 mM)	Activity ([4]; [B]/[Dimedone] = 1.0 mM)	Average rate (abs/min) ([4]; [B]/[Dimedone] = 2.0 mM)	Rate relative to NHase ([4]; [B]/[Dimedone] = 2.0 mM)	Activity ([4]; [B]/[Dimedone] = 2.0 mM)	Average rate (abs/min) ([4]; [B]/[Dimedone] = 2.5 mM)	Rate relative to NHase ([4]; [B]/[Dimedone] = 2.5 mM)	Activity ([4]; [B]/[Dimedone] = 2.5 mM)	also measured
O=C1c2ccccc2C(=O)c2c(SO)cccc21 [Compound 1, anthraquinone-1-sulfenic acid, reference compound]	7.61 ± 0.02	–	–	–	–	–	–	–	–	–	–	–	–	–	pKa value reported in Kice et al., J. Org. Chem. 1989 [1]: 7.51; pKa [2, 6]: 8.6 ± 0.1
OB1OCc2ccccc21 [Compound 2A, 2-(hydroxymethyl)benzeneboronic acid hemiester]	7.8	7.8	0.0039 ± 0.0002 abs/min	87%	0.870 nmol/min/mg	0.0034 ± 0.0002 abs/min	74%	0.826 nmol/min/mg	0.00266 ± 0.00008 abs/min	61%	0.592 nmol/min/mg	0.00205 ± 0.00009 abs/min	45%	0.502 nmol/min/mg	pKa [2, 6]: 10.2; Averaged -log (Kd) in 15% acetonitrile-water at 22° C. [3]: 3.8 ± 0.1; Averaged -log (Kd) in 70% acetonitrile-water at 22° C. [3]: 3.90 ± 0.02; Kd [3]: 158 µM; Effectiveness of NHase inhibition among the boronic acids examined ([4]; comparison of PBA, BOXY, 3BrB, 0.5-2.5 mM): most effective
O=[N+]([O-])c1ccc(B(O)O)cc1 [Compound 2b, 4-nitrobenzeneboronic acid]	7.39 ± 0.05	–	–	–	–	–	–	–	–	–	–	–	–	–	–
OB(O)c1cccc(Br)c1 [Compound 2d, 3-Bromobenzene-boronic acid]	8.55	8.48	0.0039 ± 0.0004 abs/min	87%	0.878 nmol/min/mg	0.00369 ± 0.00009 abs/min	81%	0.903 nmol/min/mg	0.00348 ± 0.0004 abs/min	79%	0.775 nmol/min/mg	0.00319 ± 0.0007 abs/min	69%	0.782 nmol/min/mg	Averaged -log (Kd) in 70% acetonitrile-water at 22° C. [3, 8]: 4.0 ± 0.1; Kd [3, 9]: 158 µM
OB(O)c1ccc(Br)cc1 [Compound 2e, 4-bromo-benzeneboronic acid]	9.1 ± 0.1	–	–	–	–	–	–	–	–	–	–	–	–	–	–
OB(O)c1ccc(F)cc1 [Compound 2f, 4-fluorobenzene-boronic acid]	9.4 ± 0.02	–	–	–	–	–	–	–	–	–	–	–	–	–	–
OB(O)c1ccccc1 [Compound 2g, phenylboronic acid]	9.5 ± 0.06	9.38	0.0043 ± 0.0004 abs/min	96%	0.968 nmol/min/mg	0.0041 ± 0.0002 abs/min	91%	1.006 nmol/min/mg	0.00382 ± 0.00004 abs/min	87%	0.851 nmol/min/mg	0.0038 ± 0.0001 abs/min	83%	0.931 nmol/min/mg	Averaged -log (Kd) in 70% acetonitrile-water at 22° C. [3, 8]: 3.96 ± 0.04; Kd [3, 9]: 200 µM
COc1ccc(B(O)O)cc1 [Compound 2h, 4-methoxybenzeneboronic acid]	10.13 ± 0.02	–	–	–	–	–	–	–	–	–	–	–	–	–	–
CC1(C)CC(=O)CC(=O)C1 [Dimedone, 5,5-dimethyl-1,3-cyclohexanedione, reference compound]	–	–	0.00274 ± 0.00006 abs/min	61%	0.611 nmol/min/mg	0.0017 ± 0.0004 abs/min	37%	0.406 nmol/min/mg	0 abs/min	0%***	0 nmol/min/mg	0 abs/min	0%	0 nmol/min/mg	–
